Drawing on article PMC7037283, “Introduction of Mercaptoethyl at Sorafenib Pyridine-2-Amide Motif as a Potentially Effective Chain to Further get Sorafenib-PEG-DGL” (Molecules, 2020), this text covers melting point and IC50 for six molecules.

Where only a bound is given, the exact number is not on record here.

In data set [1] the test system is MDA-MB-231 (triple negative breast cancer). Kind of data set: MTT anti-proliferative assay, MDA-MB-231. The data set is classed as cell-based. The settings on record: Homo sapiens, 48 h treatment. The protocol: (§1) The in vitro anti-proliferation of the chemical compounds was measured by the MTT reagent. Briefly, 5 × 10^3 cells in 100 μL of medium per well were plated in 96-well plates. After being incubated for 24 h at 37 °C, the cells were treated with different concentration of tested compound or DMSO (as negative control) for 48 h. Then the medium with compound or DMSO was replaced with 200 μL of fresh medium containing 10% MTT (5 mg/mL in PBS) in each well and incubated at 37 °C for 4 h. Last, the MTT-containing medium was discarded and 150 μL of DMSO per well was added to dissolve the formazan crystals newly formed. Absorbance of each well was determined by a microplate reader (Synergy H4, Bio-Tek) at a 570 nm wavelength. The inhibition rates of proliferation were calculated with the following equation:Inhibition ratio (%) = (ODDMSO−ODcompd)/(ODDMSO−ODblank) × 100(1)
(§2) The concentration of the compounds that inhibited cell growth by 50% (IC50) was calculated using GraphPad Prism, version 6.0.
For orientation: Tetrazolium assays rely on reduction of a dye to a coloured formazan, in cell work by metabolically active cells.

The subject of a further data set is HepG2. Kind of data set: MTT anti-proliferative assay, HepG2. The settings on record: Homo sapiens, 48 h treatment. The data set is classed as cell-based. As to the method:
as §1, §2

Data set [2] has as its system Hela (human cervical carcinoma). Kind of data set: MTT anti-proliferative assay, Hela. The data set is classed as cell-based. To be noted: 48 h treatment. As to the method:
as §1, §2

For the next data set, the system named is MCF-7. Briefly: MTT anti-proliferative assay, MCF-7. The data set is classed as cell-based. To be noted: Homo sapiens, MCF7, 48 h treatment. As to the method:
as §1, §2

The next data set relates to Huh7. Briefly: MTT anti-proliferative assay, Huh7. To be noted: Homo sapiens, Huh-7, 48 h treatment. The data set is classed as cell-based. The protocol: as §1, §2
Data set [3] relates to HUVEC (Human Umbilical Vein Endothelial Cells). Kind of data set: MTT anti-proliferative assay, nontumorigenesis cells HUVEC. The data set is classed as cell-based. The settings on record: 48 h treatment. As to the method: as §1, §2
In a further data set the test system is A549. Kind of data set: MTT anti-proliferative assay, A549. To be noted: Homo sapiens, 48 h treatment. The data set is classed as cell-based. The protocol:
as §1, §2

Data set [4] has as its system mouse melanoma cell line B16F10. Kind of data set: MTT anti-proliferative assay, B16F10. The data set is classed as cell-based. To be noted: B16-F10, 48 h treatment. As to the method:
as §1, §2

The test system of the next data set is 293T. Kind of data set: MTT anti-proliferative assay, nontumorigenesis cells 293T. The settings on record: Homo sapiens, HEK-293T, 48 h treatment. The data set is classed as cell-based. As to the method: as §1, §2

`O=C(Nc1ccc(Oc2ccnc(C(=O)NCCO)c2)cc1)Nc1ccc(Cl)c(C(F)(F)F)c1` [Compound 10a, N-(2-hydroxyethyl)-4-(4-(3-(4-chloro-3-(trifluoromethyl)phenyl)ureido)phenoxy)picolinamide] had a melting point of 193 to 195 °C. The concentration for half-maximal inhibition (IC50) in [1] was over 500 µM. The IC50 in the data set on HepG2 stood at 70.7 µM. For the same molecule, the IC50 in [2] was over 500 µM. Also, the IC50 in the data set on MCF-7 was 471 µM. Moreover, the IC50 in the data set on Huh7 was found to be 319 µM. Also, the IC50 in [3] stood at 583 µM. Besides, the IC50 in the data set on A549 was determined as 287 µM. For the same molecule, the IC50 in data set [4] is over 500 µM. Also, the IC50 in the data set with 293T stood at 643 µM.

For the molecule `O=C(Nc1ccc(Oc2ccnc(C(=O)NCCS)c2)cc1)Nc1ccc(Cl)c(C(F)(F)F)c1` [Compound 10b, N-(2-mercaptoethyl)-4-(4-(3-(4-chloro-3-(trifluoromethyl)phenyl)ureido)phenoxy) picolinamide], the IC50 in [1] stood at 295 µM; in the data set on HepG2 it was 282 µM; in data set [2] it was 63.7 µM; in the data set on MCF-7, 159 µM; with Huh7, 58.8 µM; in [3], 197 µM. Besides, the figures for the IC50 (in the data set with A549; in data set [4]; in the data set on 293T) were 447 µM, over 500 µM and 135 µM, respectively.

`O=C(Nc1ccc(Oc2ccnc(C(=O)NCCCO)c2)cc1)Nc1ccc(Cl)c(C(F)(F)F)c1` [Compound 10c, N-(3-hydroxypropyl)-4-(4-(3-(4-chloro-3-(trifluoromethyl)phenyl)ureido)phenoxy)picolinamide]: the melting point is 103 to 105 °C. In addition, the IC50 in [1] was 330 µM. Also, in the data set on HepG2, the IC50 turned out to be 90.1 µM. Moreover, the IC50 in data set [2] stood at 233 µM. Besides, the IC50 in the data set on MCF-7 worked out at 268 µM. Further, the IC50 with Huh7 was 88.4 µM. For the same molecule, in data set [3], the IC50 stood at 329 µM. For the same molecule, in the data set on A549, the IC50 was over 500 µM. Further, the IC50 in data set [4] is 449 µM. The concentration for half-maximal inhibition (IC50) with 293T was 454 µM.

For `CC(CO)NNC(=O)c1cc(Oc2ccc(NC(=O)Nc3ccc(Cl)c(C(F)(F)F)c3)cc2)ccn1` (stereo not shown) [Compound 15a, 1-(4-Chloro-3-(trifluoromethyl)phenyl)-3-(4-((2-(2-(1-hydroxypropan-2-yl)hydrazine-1-carbonyl)pyridin-4-yl)oxy)phenyl)urea], the melting point is 139 to 141 °C. For the same molecule, the IC50 in data set [1] was over 500 µM. The IC50 in the data set on HepG2 came out at 80.1 µM. The IC50 in data set [2] was over 500 µM. Further, the IC50 in the data set on MCF-7 is over 500 µM. Besides, the IC50 with Huh7 was over 500 µM. Moreover, in [3], the IC50 came to 320 µM. For the same molecule, in the data set on A549, the IC50 turned out to be 46.2 µM. Besides, the IC50 in [4] was over 500 µM. Further, the IC50 in the data set with 293T came out at 1580 µM.

As to `CC(CCO)NNC(=O)c1cc(Oc2ccc(NC(=O)Nc3ccc(Cl)c(C(F)(F)F)c3)cc2)ccn1` (stereo not shown) [Compound 15b, 1-(4-Chloro-3-(trifluoromethyl)phenyl)-3-(4-((2-(2-(4-hydroxybutan-2-yl)hydrazine-1-carbonyl)pyridin-4-yl)oxy)phenyl)urea], the melting point was 89 to 92 °C. The IC50 in [1] is over 500 µM. In addition, the IC50 in the data set on HepG2 was over 500 µM. In addition, the half-inhibitory concentration (IC50) in [2] is over 500 µM. Besides, the IC50 in the data set with MCF-7 was over 500 µM. The half-maximal inhibitory concentration (IC50) in the data set on Huh7 is over 500 µM. Moreover, the IC50 in data set [3] turned out to be 1250 µM. For the same molecule, the IC50 with A549 was over 500 µM. Besides, the IC50 in data set [4] is over 500 µM. For the same molecule, in the data set with 293T, the IC50 is 559 µM.

Consider `CNC(=O)c1cc(Oc2ccc(NC(=O)Nc3ccc(Cl)c(C(F)(F)F)c3)cc2)ccn1` [Sorafenib], for which the IC50 in data set [1] was found to be 12.3 µM; with HepG2, 24.1 µM; in [2] it was 49.5 µM; in the data set on MCF-7, 37.2 µM; with Huh7, 19.5 µM; in data set [3], 35.5 µM. Besides, the IC50 with A549 turned out to be 17.4 µM; in [4] it was 17.3 µM; with 293T, 16.1 µM.

A word on the melting point: it is the temperature, or range, at which the solid turns liquid. One may read the IC50 as the concentration needed to halve the response being measured.
